Article PMC8501640, “Altered Env conformational dynamics as a mechanism of resistance to peptide-triazole HIV-1 inactivators” (Retrovirology, 2021)
*1 amine or outer side, *2 acyl side, *3 side chain or, on linkers, in order; H or OH if unused. Where a SMILES comes first, the peptide text is derived from it. Bridges are numbered along the chain shown (N, C = ends). [ ]: non-standard residue; d: D form. X1 = O=C([C@@H]1CC(n2cc([C]34[CH]5[CH]6[CH]7[CH]3[Fe]6754389%10[CH]4[CH]3[CH]8[CH]9[CH]4%10)nn2)CN1[*:1])[*:2]

Legend:
[1] = biological target: HIV-1 HxBc2 gp120 V255I/S143N monomer (Human immunodeficiency virus type 1 group M subtype B, UniProt P04578, S143N/V255I); assay: Surface plasmon resonance, V255I/S143N gp120; assay type: binding
Procedure: (§1) SPR experiments were performed on a Biacore 3000 biosensor (Global Cytiva Lifesciences) at 25 °C using PBS-P (10 mM Phosphate, 150 mM NaCl, pH 7.4, 0.005% P-20) as the running buffer. A CM5 sensor chip was docked and derivatized by amine coupling with HIV-1HxBc2 WT and mutant gp120 subunits using freshly prepared 1:1 50 mM NHS (N-hydroxysuccinamide):200 mM EDC (1-ethyl-3-(3-(dimethylamino)propyl) carbodiimide). […] The equilibrium dissociation constant was calculated as KD = k−1/k1.
(§2) Rate constants k1 and k-1 are defined as they are in the 1:1 binding model, while k2 and k-2 are first order rate constants describing isomerization and de-isomerization, respectively. Equations describing the time course of the interactions can be found in Additional file 1: Method S1. For the fit, it was assumed that the states Env·PT and Env·PT^∗ had the same SPR signal. Rate constants were determined using a least-squares gradient-step algorithm coded in Visual Basic and implemented through Microsoft Excel.

[2] = biological target: HxBc2 gp120 V255I/S143N monomer (Human immunodeficiency virus type 1 group M subtype B, UniProt P04578, S143N/V255I); assay: Isothermal titration calorimetry, V255I/S143N gp120; assay type: binding, HIV-1; details: 25 °C
Procedure: (§3) Heats were obtained at 25 °C by injection of 8 μL of PT (100 μM) into a sample cell of a VP-ITC containing 1.4 mL recombinant HxBc2 gp120 (6–8 μM). Solid lines represent fits to a single site binding model.
(§4) The resulting heat changes upon injection were integrated over a time range of 240 s, and the obtained values were fit to a standard single site-binding model using Origin® software.

BaL.01 viruses = tested on: BaL.01 viruses; design: method as in PMID 24330857, PMID 26331669; details: ref [16], [21], read-out: EC50 of induced gp120 shedding; cited from earlier work
[3] = biological target: HIV-1 HxBc2 gp120 V255I monomer (Human immunodeficiency virus type 1 group M subtype B, UniProt P04578, V255I); assay: Surface plasmon resonance, V255I gp120; assay type: binding
Procedure: as §1, §2

HxBc2 gp120 WT monomer = HxBc2 gp120 WT monomer (Human immunodeficiency virus type 1 group M subtype B, UniProt P04578); assay: Isothermal titration calorimetry, WT gp120; assay type: binding, HIV-1; details: 25 °C
Procedure: as §3, §4

[4] = tested on: V255I NL4-3 Env on HEK293T cells; assay: gp120 shedding analysis by flow cytometry, V255I Env; assay type: cell-based, HIV-1
Procedure: (§5) The measurements (mean fluorescence intensity) were obtained by flow cytometry using an anti-Env IgG (mAb 35O22) that recognizes a quaternary epitope at the gp120/gp41 interface.
(§6) The gp120 shedding assay was performed as described previously. Briefly, three million HEK293T cells per flask were transiently transfected with 4 μg of HIV-1 NL4-3 Env plasmid and transfection reagent FuGENE 6 (Promega). 5 mM EDTA in DPBS was used to detach cells at 24 h and cells were reseeded in 96-well plates with 50,000 cells per well. […] Cells were washed with fresh medium, detached with 5 mM EDTA, and then washed and resuspended in FC buffer (1% BSA and 1 mM EDTA in 10 mM PBS pH 7.4). 2% paraformaldehyde in DPBS was used to fix the cells for 15 min at room temperature. Cells were then washed and resuspended in the FC buffer three times. […] Cell counts and Env staining were assessed in counted cells on a Guava EasyCyte 5HT flow cytometry system (Millipore). Analyzed cells were subjected to forward/side scatter gating based on untreated control populations of identical transfection, and median fluorescence values were obtained using Guava InCyte 3.2 software. Data were analyzed in GraphPad Prism 9 using nonlinear regression fit with dose response-inhibitor equation (4 parameters).

[5] = biological target: HIV-1 HxBc2 gp120 WT monomer (Human immunodeficiency virus type 1 group M subtype B, UniProt P04578); assay: Surface plasmon resonance, WT gp120; assay type: binding
Procedure: as §1, §2

CEM-GFP cells = assay: WST-1 cytotoxicity assay; assay type: cell-based; details: up to concentrations of 125 μM
Procedure: The cytotoxicity was determined on CEM-GFP cells via a colorimetric assay to measure the relative proliferation rates of cells in culture. […] After 18 h of incubation, the media containing compounds were discarded and treated with 10% (v/v) WST-1 (a tetrazolium salt) in fresh media for one hour at 37 °C. The cell viability was determined by measuring the absorbance at 450 nm using a Tecan Infinite F50 plate reader.
Figure S1. […] Data represent means and standard deviations of three independent experiments performed in triplicate.

[6] = biological target: HxBc2 gp120 V255I monomer (Human immunodeficiency virus type 1 group M subtype B, UniProt P04578, V255I); assay: Isothermal titration calorimetry, V255I gp120; assay type: binding, HIV-1
Procedure: as §3, §4

[7] = tested on: V255I/S143N NL4-3 Env on HEK293T cells; assay: gp120 shedding analysis by flow cytometry, V255I/S143N Env; assay type: cell-based, HIV-1
Procedure: as §5, §6

[8] = tested on: S143N NL4-3 Env on HEK293T cells; assay: gp120 shedding analysis by flow cytometry, S143N Env; assay type: cell-based, HIV-1; details: S143N mutant Env trimer; 50-fold higher than the EC50 value for wild type Env
Procedure: as §5, §6

[9] = tested on: wild type NL4-3 Env on HEK293T cells; assay: gp120 shedding analysis by flow cytometry, wild type Env; assay type: cell-based, HIV-1; details: WT NL4-3 Env on HEK293T cells; 37 °C, 2 h; mAb 35O22 flow cytometry; read-out: EC50 of induced gp120 shedding (intact Env trimers remaining)
Procedure: as §5, §6

## CC[C@H](C)[C@@H]1NC(=O)[C@H](CC(N)=O)NC(=O)[C@@H](N)CC(=O)NCCCC[C@@H](C(N)=O)NC(=O)[C@H](Cc2c[nH]c3ccccc23)NC(=O)[C@@H]2CC(n3cc([C]45[CH]6[CH]7[CH]8[CH]4[Fe]786549%10%11[CH]5[CH]4[CH]9[CH]%10[CH]5%11)nn3)CN2C1=O (some centres unmarked) [AAR029b] (H-DNI[X1]WK-NH2; lactam 1-6 (inferred))
[1]; PT association
  SPR k1: 3.6 (M^−1 s^−1) × 10^–5
[1]; PT dissociation
  SPR k-1: 110 (s^−1) × 10^3
[2]
  ITC binding stoichiometry n: 1.1 ± 0.04
  ITC −TΔS: 1.0 ± 0.91 kcal/mol
BaL.01 viruses
  EC50: 315 nM
[3]; V255I gp120, PT association
  SPR k1: 5.4 (M^−1 s^−1) × 10^–5
[3]; V255I gp120, PT dissociation
  SPR k-1: 130 (s^−1) × 10^3
[3]; V255I vs WT gp120
  decrease in binding affinity (KD) by the V255I mutation, SPR: 31 fold
HxBc2 gp120 WT monomer
  ITC binding stoichiometry n: 1.1 ± 0.04
  ITC −TΔS: 4.5 ± 0.90 kcal/mol
[4]
  decrease in sensitivity to ligand-induced shedding compared to wild type Env: greater than tenfold
[5]; PT association
  SPR k1: 11 (M^−1 s^−1) × 10^–5
[5]; PT dissociation
  SPR k-1: 8.3 (s^−1) × 10^3
CEM-GFP cells
  cytotoxicity: minimal
[6]; V255I gp120 (HxBc2), 25 °C
  ITC binding stoichiometry n: 1.0 ± 0.01
  ITC −TΔS: 0.43 ± 0.30 kcal/mol
[6]; mutant vs wild type gp120, ITC
  absolute impact of V255I substitution on enthalpy (ΔH) and entropy (TΔS): 3.5 to 4.5 kcal/mol
[7]
  decrease in sensitivity to ligand-induced shedding compared to wild type Env: greater than tenfold
[8]
  disruption of Env trimer (shedding) at high concentration: only minimal disruption
[9]
  EC50: 249 ± 75 nM
